The test system of one data set is Caenorhabditis elegans. The data set is described as follows: In vivo toxicity C. elegans survival assay. The following applies: for survival rate: C. elegans, 50 µg/mL (highest tested concentration), 48 h. The protocol:
3. Bioactivity and Toxicity Assays […]
Compounds were dissolved in DMSO at a concentration of 50 mg/mL, and the highest tested concentration was 250 µg/mL. […]
In vivo toxicity C. elegans assay: The C. elegans survival assay was carried out as described previously with some modifications. 8 In brief, synchronized worms (L4 stage) were suspended in a medium containing 95% M9 buffer (3.0 g of KH2PO4, 6.0 g of Na2HPO4, 5.0 g of NaCl, and 1 mL of 1 M MgSO4 × 7H2O in 1 L of water), 5% LB (Luria-Bertani) broth (Oxoid, Basingstoke, UK), and 10 μg of cholesterol (Sigma -Aldrich, Munich, Germany) per mL. The experiment was carried out in 96 -well flat -bottomed microtiter plates (Sarstedt, Nümbrecht, Germany) in the final volume of 100 μL per wel l. 25 μL of this suspension of nematodes (25 –35 nematodes) were transferred to the wells of a 96 -well microtiter plate, where 50 μL of the medium was previously added. Next, 25 μL of a solvent control (DMSO) or 25 μL of a concentrated solution was added to the test wells. The final concentrations of the compounds were 50, 25, 10, and 5 µg/mL. Subsequently, the plates were incubated at 25 °C for 2 days. The fraction of dead worms was determined after 48 h by counting the number of dead worms and the total number of worms in each well, using a stereomicroscope (SMZ143-N2GG, Motic, Germany).
As a negative control experiment, nematodes were exposed to the medium containing 1% […]
(§1) Ergosterol biosynthesis assay: Ergosterol levels were measured according to the published procedure with some minor modifications. 10 Briefly, a sing le C. albicans colony from an overnight Sabouraud dextrose agar plate was used to inoculate 50 ml of Sabouraud dextrose broth containing 0.5 MIC concentrated compounds. Incubation was performed for 18 h at 37 °C on the rotary shaker at 180 rpm. Cells were harvested by centrifugation at 3000 rpm for 5 min and washed once with sterile distilled water. The net wet weight of the cell pellet was determined. Three milliliters of 25% alcoholic potassium hydroxide solution (25 g of KOH and 35 ml of sterile distill ed water, brought to 100 ml with 100% ethanol), was added to each pellet and vortex mixed for 1 min and incubated in an 85 °C water bath for 1 h. Tubes were cooled to room temperature and extraction of sterols was done with the addition of a mixture of 1 ml of sterile distilled water and 3 ml of n-heptane followed by vigorous vortex mixing for 3 min. The heptane layer was used for spectrophotometrically measuring ergosterol concentrations by scanning absorbance between 240 nm and 300 nm using Ultrospec 3300pro 573 (Amer sham Biosciences, Amersham, UK).

Data set [1] concerns C. albicans ATCC 10231 hyphae formation. The data set is described as follows: Filamentation test on Candida (solid spider medium). The following applies: 0.5 times MIC; 120 h; C. albicans ATCC10231. The data set is classed as cell-based, Candida albicans. The method, then:
Filamentation test on Candida: Using solid composition, the effect of sorrentano ne […]
albicans cells from an overnight culture grown in Sabouraud dextrose broth medium at 37 °C with or without compounds were centrifuged for 10 minutes at maximum speed, and the pellet was washed several times with sterile PBS (phosphate -buffered saline). After it, the pellet was resuspended in 200 µL PBS, and 2 µL of cell suspension was poured over solid composition and incubated at 37 °C for 120 h. Morphological changes of C. albicans ATCC

Data set [2] has as its system C. albicans ATCC10231 biofilm formation. The data set is described as follows: Anti-biofilm activity assessment (crystal violet). In kind it is cell-based, Candida albicans. The note with it: for inhibition of biofilm formation (in words): data not shown. The method, then:
Anti-biofilm activity assessment: The effect of compounds on biofilms formation was determined on C. albicans ATCC 10231 strain. Anti -biofilm assays were conducted using a previously reported methodology with small modifica tions.9 The assay was carried out in 96 - well round-bottom polystyrene microtiter plates. Cells wer e harvested from overnight grown cultures, washed twice with sterile phosphate -buffered saline (PBS; Sigma -Aldrich, Munich, Germany), and resuspended in RPMI 1640 medium (Sigma -Aldrich) containing 2% glucose (w/v) at a concentration of 1 × 10^5 CFU/mL. C. albicans suspension was incubated with 0.5 MIC, 1 MIC, and 2 MIC compounds concentration in 200.0 μL final volume per well for 48 h at 37 °C to allow biofilm formation. Biofilm growth was analyzed by crystal violet (CV) staining of adherent cells and the a bsorbance at 590.0 nm was read on a Tecan Infinite 200 Pro multiplate reader (Tecan Group Ltd., Männedorf, Switzerland). […]

For data set [3], the system named is ergosterol in C. albicans. The data set can be described thus: Ergosterol biosynthesis assay. The following applies: 0.5 MIC; Candida cells; UV profile. In kind it is cell-based, Candida albicans. The protocol: as §1

Regarding `CC1=C(O)C(=O)C(C)=C(C(=O)OCCCC(C)C)C1=O` [compound 36], in the data set on Caenorhabditis elegans (C. elegans model), the “in vivo toxicity (in words)” value is reported as “comparatively lower in vivo toxicity”. Also, in the data set with Caenorhabditis elegans, the survival rate entry was “over 90%”. For the same compound, the “filamentation (in words)” value in data set [1] is recorded as “hardly observed”. In addition, the “inhibition of biofilm formation (in words)” value in data set [2] was “displayed inhibition of biofilm formation”. Besides, in data set [3], the “reduction of total amount of ergosterol (in words)” value was “most potent in reducing the total amount of ergosterol”.

As to `CC1=C(O)C(=O)C(C)=C(C(=O)OCc2ccccc2)C1=O` [compound 41], the survival rate entry in the data set on Caenorhabditis elegans was “over 90%”. Moreover, the “filamentation (in words)” value in data set [1] is listed as “hardly observed”. In data set [2], the “inhibition of biofilm formation (in words)” value is recorded as “displayed inhibition of biofilm formation”. The “inhibition of biofilm formation” value in data set [2] (sub-inhibitory concentration (0.5 times MIC), 48 h) is 60–77%. Further, the “reduction of total amount of ergosterol (in words)” value in data set [3] was “most potent in reducing the total amount of ergosterol”.
